Source: PubChem BioAssay AID2060896 (Molecular Pharmacology Branch, DTP, NCI, 2025)

Test system: 941728-121-R-J1-PDC complex spheroid viability
Test: Anticancer human tumor 941728-121-R-J1-PDC patient-derived lung adenocarcinoma cell line growth inhibition [RAS]
Conditions: for IC50: curve of first compound; for viability, T/C: stronger effect = lower value
In short: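 Tumour cells grown as complex spheroids with HUVEC endothelial cells and mesenchymal stem cells, treated with RAS pathway inhibitor combinations. Each agent spans half-log steps from near clinical Cmax, or 10 microM where Cmax is unknown.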

[1] = second compound 0.000949 µM, first compound 0.0316 µM
[2] = second compound 0.000949 µM, first compound 0.1 µM
[3] = second compound 0.000949 µM, first compound 0.316 µM
[4] = second compound 0.000949 µM, first compound 1 µM
[5] = second compound 0.000949 µM, first compound 3.16 µM
[6] = second compound 0.000949 µM, first compound 10 µM
[7] = second compound 0.003 µM, first compound 0.0316 µM
[8] = second compound 0.003 µM, first compound 0.1 µM
[9] = second compound 0.003 µM, first compound 0.316 µM
[10] = second compound 0.003 µM, first compound 1 µM
[11] = second compound 0.003 µM, first compound 3.16 µM
[12] = second compound 0.003 µM, first compound 10 µM
[13] = second compound 0.00949 µM, first compound 0.0316 µM
[14] = second compound 0.00949 µM, first compound 0.1 µM
[15] = second compound 0.00949 µM, first compound 0.316 µM
[16] = second compound 0.00949 µM, first compound 1 µM
[17] = second compound 0.00949 µM, first compound 3.16 µM
[18] = second compound 0.00949 µM, first compound 10 µM
[19] = second compound 0.03 µM, first compound 0.0316 µM
[20] = second compound 0.03 µM, first compound 0.1 µM
[21] = second compound 0.03 µM, first compound 0.316 µM
[22] = second compound 0.03 µM, first compound 1 µM
[23] = second compound 0.03 µM, first compound 3.16 µM
[24] = second compound 0.03 µM, first compound 10 µM
[25] = second compound 0.0949 µM, first compound 0.0316 µM
[26] = second compound 0.0949 µM, first compound 0.1 µM
[27] = second compound 0.0949 µM, first compound 0.316 µM
[28] = second compound 0.0949 µM, first compound 1 µM
[29] = second compound 0.0949 µM, first compound 3.16 µM
[30] = second compound 0.0949 µM, first compound 10 µM
[31] = second compound 0.3 µM, first compound 0.0316 µM
[32] = second compound 0.3 µM, first compound 0.1 µM
[33] = second compound 0.3 µM, first compound 0.316 µM
[34] = second compound 0.3 µM, first compound 1 µM
[35] = second compound 0.3 µM, first compound 3.16 µM
[36] = second compound 0.3 µM, first compound 10 µM
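Further: spheroids exposed to compounds for 7 days before readout.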
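Wherever viability, T/C is given: 100% = DMSO vehicle control viability.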

`CC(=O)OC12COC1CC(O)C1(C)C(=O)C(O)C3=C(C)C(OC(=O)C(O)C(NC(=O)OC(C)(C)C)c4ccccc4)CC(O)(C(OC(=O)c4ccccc4)C21)C3(C)C` (stereo unspecified) + CCn1c(-c2cccnc2C(C)OC)c2c3cc(ccc31)N1CCOC(CC(NC(=O)C(C(C)C)N(C)C(=O)C3(F)CCN(C(=O)C#CC(C)(C)N(C)C)CC3)C(=O)N3CCCC(N3)C(=O)OCC(C)(C)C2)C1 showed an IC50 (second compound 0.000949 µM) of under 31.6 nM, an IC50 (second compound 0.003 µM) of under 31.6 nM and an IC50 (second compound 0.00949 µM) of under 31.6 nM. It also gave an IC50 (second compound 0.03 µM) of under 31.6 nM, an IC50 (second compound 0.0949 µM) of under 31.6 nM and an IC50 (second compound 0.3 µM) of under 31.6 nM. It also gave a viability, T/C [1] of 18.3%, a viability, T/C [2] of 15.4% and a viability, T/C [3] of 11.9%. The viability, T/C [4] was 15.6%, the viability, T/C [5] was 15.1% and the viability, T/C [6] was 14.2%. It also gave a viability, T/C [7] of 17.3%, a viability, T/C [8] of 15.6% and a viability, T/C [9] of 13.1%. For the same compound, the viability, T/C [10] was 14.4%, the viability, T/C [11] was 14.9% and the viability, T/C [12] was 11.1%. For the same compound, the viability, T/C [13] was 16.9%, the viability, T/C [14] was 13.9% and the viability, T/C [15] was 13.1%. It also gave a viability, T/C [16] of 13.8%, a viability, T/C [17] of 12.7% and a viability, T/C [18] of 12.7%. For the same compound, the viability, T/C [19] was 17.6%, the viability, T/C [20] was 16.2% and the viability, T/C [21] was 14.4%. For the same compound, the viability, T/C [22] was 13%, the viability, T/C [23] was 14.6% and the viability, T/C [24] was 16.3%. For the same compound, the viability, T/C [25] was 15.9%, the viability, T/C [26] was 15.1% and the viability, T/C [27] was 16.1%. The viability, T/C [28] was 15.3%, the viability, T/C [29] was 13.6% and the viability, T/C [30] was 17.3%. It also gave a viability, T/C [31] of 16.8%, a viability, T/C [32] of 17.5% and a viability, T/C [33] of 16.6%. The viability, T/C [34] was 15.9%, the viability, T/C [35] was 15.8% and the viability, T/C [36] was 16.9%.
`NC1c2ccccc2OC12CCN(c1cnc3c(N4CCCc5ncccc54)n[nH]c3n1)CC2` (stereo unspecified) + CCn1c(-c2cccnc2C(C)OC)c2c3cc(ccc31)N1CCOC(CC(NC(=O)C(C(C)C)N(C)C(=O)C3(F)CCN(C(=O)C#CC(C)(C)N(C)C)CC3)C(=O)N3CCCC(N3)C(=O)OCC(C)(C)C2)C1 showed an IC50 (second compound 0.000949 µM) of under 31.6 nM, an IC50 (second compound 0.003 µM) of under 31.6 nM and an IC50 (second compound 0.00949 µM) of under 31.6 nM. It also gave an IC50 (second compound 0.03 µM) of under 31.6 nM, an IC50 (second compound 0.0949 µM) of under 31.6 nM and an IC50 (second compound 0.3 µM) of under 31.6 nM. It also gave a viability, T/C [1] of 18.5%, a viability, T/C [2] of 17.7% and a viability, T/C [3] of 12.8%. For the same compound, the viability, T/C [4] was 17.6%, the viability, T/C [5] was 16.6% and the viability, T/C [6] was 13.9%. It also gave a viability, T/C [7] of 16.5%, a viability, T/C [8] of 15.7% and a viability, T/C [9] of 15.1%. The viability, T/C [10] was 15.9%, the viability, T/C [11] was 17.1% and the viability, T/C [12] was 13.5%. It also gave a viability, T/C [13] of 17.8%, a viability, T/C [14] of 15.3% and a viability, T/C [15] of 17.9%. It also gave a viability, T/C [16] of 18.3%, a viability, T/C [17] of 16.7% and a viability, T/C [18] of 15.4%. The viability, T/C [19] was 19.2%, the viability, T/C [20] was 17.6% and the viability, T/C [21] was 18.8%. It also gave a viability, T/C [22] of 17.1%, a viability, T/C [23] of 16.1% and a viability, T/C [24] of 20.3%. The viability, T/C [25] was 19.7%, the viability, T/C [26] was 19.4% and the viability, T/C [27] was 19%. The viability, T/C [28] was 18.9%, the viability, T/C [29] was 16% and the viability, T/C [30] was 20.2%. For the same compound, the viability, T/C [31] was 20.2%, the viability, T/C [32] was 20.5% and the viability, T/C [33] was 20.8%. It also gave a viability, T/C [34] of 18.2%, a viability, T/C [35] of 18.6% and a viability, T/C [36] of 22.6%.
For `Nc1ccn(C2OC(CO)C(O)C2(F)F)c(=O)n1` (stereo unspecified) + CCn1c(-c2cccnc2C(C)OC)c2c3cc(ccc31)N1CCOC(CC(NC(=O)C(C(C)C)N(C)C(=O)C3(F)CCN(C(=O)C#CC(C)(C)N(C)C)CC3)C(=O)N3CCCC(N3)C(=O)OCC(C)(C)C2)C1, the IC50 (second compound 0.000949 µM) was under 3.16 nM, the IC50 (second compound 0.003 µM) was under 3.16 nM and the IC50 (second compound 0.00949 µM) was under 3.16 nM. The IC50 (second compound 0.03 µM) was under 3.16 nM, the IC50 (second compound 0.0949 µM) was under 3.16 nM and the IC50 (second compound 0.3 µM) was under 3.16 nM. The viability, T/C (second compound 0.000949 µM, first compound 0.00316 µM) was 23.9%, the viability, T/C (second compound 0.000949 µM, first compound 0.01 µM) was 20.1% and the viability, T/C [1] was 18.7%. It also gave a viability, T/C [2] of 18.2%, a viability, T/C [3] of 19.5% and a viability, T/C [4] of 15.3%. For the same compound, the viability, T/C (second compound 0.003 µM, first compound 0.00316 µM) was 22%, the viability, T/C (second compound 0.003 µM, first compound 0.01 µM) was 18% and the viability, T/C [7] was 16.9%. It also gave a viability, T/C [8] of 19.5%, a viability, T/C [9] of 18.4% and a viability, T/C [10] of 13.2%. It also gave a viability, T/C (second compound 0.00949 µM, first compound 0.00316 µM) of 22.1%, a viability, T/C (second compound 0.00949 µM, first compound 0.01 µM) of 15.5% and a viability, T/C [13] of 18.8%. For the same compound, the viability, T/C [14] was 18.2%, the viability, T/C [15] was 20.9% and the viability, T/C [16] was 17%. For the same compound, the viability, T/C (second compound 0.03 µM, first compound 0.00316 µM) was 20.4%, the viability, T/C (second compound 0.03 µM, first compound 0.01 µM) was 20.4% and the viability, T/C [19] was 21.4%. For the same compound, the viability, T/C [20] was 17.4%, the viability, T/C [21] was 14.5% and the viability, T/C [22] was 17.7%. The viability, T/C (second compound 0.0949 µM, first compound 0.00316 µM) was 21.6%, the viability, T/C (second compound 0.0949 µM, first compound 0.01 µM) was 22.1% and the viability, T/C [25] was 20.1%. For the same compound, the viability, T/C [26] was 17.6%, the viability, T/C [27] was 19.5% and the viability, T/C [28] was 16.7%. The viability, T/C (second compound 0.3 µM, first compound 0.00316 µM) was 20.3%, the viability, T/C (second compound 0.3 µM, first compound 0.01 µM) was 20.6% and the viability, T/C [31] was 17.6%. It also gave a viability, T/C [32] of 18.1%, a viability, T/C [33] of 16.6% and a viability, T/C [34] of 19.2%.
